The record followed here is ChEMBL document CHEMBL1201862, “PubChem BioAssay data set” (2004).

Test systems include ACHN; SR; OVCAR-3; HCT-116; U-251; UACC-62; EKVX; HL-60; COLO 205; HOP-92; MCF7; KM12; OVCAR-4; RPMI-8226; CCRF-CEM; NCI-H522; SNB-19; NCI/ADR-RES; NCI-H226; HCC 2998.
Assay in all cases: growth of human tumour cells (NCI), 48 h

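In this assay, cells in 96-well plates receive the compound at five concentrations for 48 hours. Endpoints are linearly interpolated between the surrounding concentrations. The concentration for 50% growth inhibition is given as GI50.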 Active and inactive are the calls of the source. No stated cut-off is given here; in the data, active = GI50 up to about 1.1 µM and inactive = higher.

`CCOC(=O)c1ccc2nc(NC(=O)COC(=O)CSc3nc(C)cc(C)n3)sc2c1`: the GI50 in the assay on ACHN was 46.5 µM (inactive); in the assay on SR, 52.7 µM (inactive); in the assay on OVCAR-3, 25.3 µM (inactive); in the assay with HCT-116 it was 77.3 µM (inactive); in the assay with U-251, 48.6 µM (inactive); in the assay with UACC-62 it was 25.8 µM (inactive). Besides, the GI50 in the assay on EKVX was 18.5 µM (inactive); in the assay with HL-60, 15.8 µM (inactive); with COLO 205, 99.1 µM (inactive); in the assay on HOP-92, 24.8 µM (inactive); in the assay on MCF7, 35.9 µM (inactive); in the assay on KM12, > 100 µM (inactive). The GI50 in the assay with OVCAR-4 was 42.9 µM (inactive); with RPMI-8226 it was 53 µM (inactive); in the assay with CCRF-CEM it was 1.52 µM (inactive); in the assay on NCI-H522, 64 µM (inactive); in the assay with SNB-19, 37.8 µM (inactive); in the assay on NCI/ADR-RES, 48.4 µM (inactive).
Turning to `CC12CCc3ccccc3C1=Nc1ccccc12` (centres undefined), the GI50 with ACHN was 64.7 µM (inactive); with SR, 45.3 µM (inactive); with OVCAR-3 it was 15.3 µM (inactive); in the assay with HCT-116, 32.7 µM (inactive); in the assay with NCI-H226, 21.8 µM (inactive); in the assay on U-251 it was 44.6 µM (inactive). Also, the GI50 in the assay with UACC-62 was 29.4 µM (inactive); in the assay on EKVX, 25.1 µM (inactive); in the assay with HL-60, 28.8 µM (inactive); with COLO 205, 42.8 µM (inactive); with HOP-92 it was 12.9 µM (inactive); in the assay with MCF7, 48.6 µM (inactive). Besides, the GI50 in the assay on KM12 was 24.1 µM (inactive); in the assay with OVCAR-4, 41.3 µM (inactive); in the assay with CCRF-CEM, 25.1 µM (inactive); in the assay on NCI-H522, 23.7 µM (inactive); in the assay on SNB-19 it was > 100 µM (inactive); with NCI/ADR-RES it was 22.4 µM (inactive).
`O=C1C=C(Nc2cccnc2)c2ccccc2/C1=N/O`: the GI50 was 23.2 µM (inactive) in the assay with ACHN; 1.81 µM (inactive) with OVCAR-3; 26.6 µM (inactive) in the assay with HCT-116; 58.7 µM (inactive) in the assay with NCI-H226; 26.3 µM (inactive) in the assay on U-251; 20.9 µM (inactive) in the assay on UACC-62. Further, the GI50 in the assay with EKVX was 14.7 µM (inactive); in the assay with HL-60 it was 0.789 µM (active); in the assay on COLO 205, 19.4 µM (inactive); in the assay on HOP-92, 21.8 µM (inactive); in the assay on MCF7, 21.6 µM (inactive); in the assay with KM12 it was 13.6 µM (inactive). The GI50 in the assay on HCC 2998 was 22.5 µM (inactive); with OVCAR-4, 19.6 µM (inactive); with RPMI-8226 it was 38 µM (inactive); in the assay with CCRF-CEM, 5.85 µM (inactive); in the assay on NCI-H522, 9.89 µM (inactive); in the assay on SNB-19 it was 1.38 µM (inactive). The GI50 in the assay with NCI/ADR-RES is 21.5 µM (inactive).
Regarding `Cc1n(Cc2ccccc2)c2c([n+]1C)C(=O)c1ccccc1C2=O`, the GI50 in the assay with ACHN was 0.873 µM (active); in the assay on OVCAR-3, < 0.0136 µM (active); with HCT-116, 0.0416 µM (active); in the assay with NCI-H226, 0.237 µM (active); in the assay on U-251, 0.0324 µM (active); in the assay with UACC-62, 0.17 µM (active). The GI50 with EKVX is 0.181 µM (active); in the assay with HL-60, 0.0318 µM (active); with COLO 205 it was < 0.01 µM (active); with HOP-92, 0.369 µM (active); with MCF7, 0.0158 µM (active); in the assay on KM12, 0.0605 µM (active). The GI50 in the assay with HCC 2998 is 0.236 µM (active); in the assay on OVCAR-4, 0.0401 µM (active); in the assay on RPMI-8226, 0.0296 µM (active); with CCRF-CEM, 0.456 µM (active); in the assay on NCI-H522, 0.027 µM (active); in the assay with SNB-19, 0.0581 µM (active). Moreover, the GI50 in the assay with NCI/ADR-RES was 21.1 µM (inactive).
Consider `COc1ccc(/C=C(/C#N)C(N)=O)cc1OC`, for which the GI50 with ACHN, in the assay on SR, with OVCAR-3, in the assay with HCT-116, with NCI-H226 and in the assay on U-251 was > 100 µM (inactive) throughout. The GI50 in the assay on UACC-62, in the assay with EKVX, in the assay with HL-60, in the assay with COLO 205, in the assay with HOP-92 and in the assay with MCF7 was > 100 µM (inactive) in each case. Moreover, the GI50 is > 100 µM (inactive) with KM12; > 100 µM (inactive) in the assay with OVCAR-4; > 100 µM (inactive) in the assay on RPMI-8226; 42.1 µM (inactive) in the assay on CCRF-CEM; > 100 µM (inactive) with NCI-H522; > 100 µM (inactive) in the assay on SNB-19. Further, in the assay on NCI/ADR-RES, the GI50 is > 100 µM (inactive).
`O=C(CCN1CCOCC1)Nc1ccc(F)cc1F`: the GI50 in the assay with ACHN, in the assay on SR, in the assay with OVCAR-3, in the assay with HCT-116, with NCI-H226 and in the assay with U-251 was > 100 µM (inactive) throughout. The GI50 in the assay on UACC-62, with EKVX, in the assay on HL-60, in the assay on COLO 205, in the assay with HOP-92 and in the assay on MCF7 was > 100 µM (inactive) in each case. Also, the GI50 in the assay with KM12, in the assay on OVCAR-4, in the assay with RPMI-8226, in the assay on NCI-H522, with SNB-19 and in the assay on NCI/ADR-RES was > 100 µM (inactive) each time.
For `C=CCN1C[C@@H](C)N([C@@H](c2ccc(C(=O)N(CC)CC)cc2)c2cccc(OC)c2)C[C@@H]1C`, the GI50 in the assay on ACHN, in the assay on SR, in the assay with OVCAR-3, with HCT-116, with NCI-H226 and with U-251 was > 100 µM (inactive) in each case. Also, the GI50 with UACC-62 is > 100 µM (inactive); with EKVX, > 100 µM (inactive); in the assay on COLO 205, > 100 µM (inactive); in the assay with HOP-92, > 100 µM (inactive); in the assay on MCF7, 49.8 µM (inactive); in the assay with KM12, > 100 µM (inactive). The GI50 is > 100 µM (inactive) with OVCAR-4; > 100 µM (inactive) in the assay with RPMI-8226; 3.7 µM (inactive) with CCRF-CEM; > 100 µM (inactive) in the assay on NCI-H522; > 100 µM (inactive) in the assay with SNB-19; > 100 µM (inactive) in the assay on NCI/ADR-RES.
Take `Cc1c(C=C(C#N)C#N)c(=O)n(C)c(=O)n1C`: the GI50 with ACHN is > 100 µM (inactive); in the assay with SR, 32.9 µM (inactive); in the assay with OVCAR-3, > 100 µM (inactive); in the assay with HCT-116, > 100 µM (inactive); in the assay on NCI-H226, > 100 µM (inactive); in the assay on U-251 it was > 100 µM (inactive). For the same molecule, the GI50 in the assay on UACC-62 is > 100 µM (inactive); with EKVX it was 81.5 µM (inactive); in the assay with HL-60 it was > 100 µM (inactive); in the assay with COLO 205, > 100 µM (inactive); with HOP-92, > 100 µM (inactive); with MCF7, > 100 µM (inactive). For the same molecule, the GI50 in the assay on KM12 is > 100 µM (inactive); in the assay with OVCAR-4 it was > 100 µM (inactive); with RPMI-8226, 72.8 µM (inactive); with CCRF-CEM it was 19.6 µM (inactive); with NCI-H522, 31.4 µM (inactive); with SNB-19, > 100 µM (inactive). For the same molecule, the GI50 in the assay on NCI/ADR-RES is > 100 µM (inactive).
For `NC(=S)c1cccc(C2Nc3ccccc3O2)c1` (centres undefined), the GI50 is 40.2 µM (inactive) in the assay on ACHN; > 100 µM (inactive) in the assay on SR; > 100 µM (inactive) in the assay on OVCAR-3; > 100 µM (inactive) with HCT-116; 12.1 µM (inactive) in the assay with NCI-H226; > 100 µM (inactive) in the assay on U-251. The GI50 was 19.5 µM (inactive) with UACC-62; 0.019 µM (active) with EKVX; 12.1 µM (inactive) with HL-60; > 100 µM (inactive) in the assay with COLO 205; > 100 µM (inactive) in the assay on HOP-92; 56.9 µM (inactive) in the assay with MCF7. The GI50 in the assay on KM12 was 37.2 µM (inactive); in the assay with OVCAR-4 it was 31.5 µM (inactive); in the assay on RPMI-8226, < 0.01 µM (active); in the assay with NCI-H522, 71.1 µM (inactive); with SNB-19 it was > 100 µM (inactive); in the assay on NCI/ADR-RES, 43.9 µM (inactive).
Take `Brc1cccc(/N=N/N2CCCC2)c1`: the GI50 in the assay on ACHN is > 100 µM (inactive); in the assay with SR, 27.4 µM (inactive); in the assay with OVCAR-3 it was > 100 µM (inactive); in the assay with HCT-116, 92.3 µM (inactive); with NCI-H226 it was > 100 µM (inactive); in the assay on U-251, 80.5 µM (inactive). Moreover, the GI50 in the assay with UACC-62 is > 100 µM (inactive); in the assay with EKVX, 97.9 µM (inactive); in the assay with HL-60 it was 16.4 µM (inactive); in the assay on COLO 205 it was > 100 µM (inactive); in the assay with HOP-92, 63.1 µM (inactive); in the assay with MCF7 it was > 100 µM (inactive). In addition, the GI50 in the assay on KM12 was 93.5 µM (inactive); in the assay on OVCAR-4, > 100 µM (inactive); in the assay on RPMI-8226, 17.2 µM (inactive); in the assay with CCRF-CEM, 49.2 µM (inactive); in the assay with NCI-H522, 68.9 µM (inactive); in the assay on SNB-19, > 100 µM (inactive). In addition, the GI50 with NCI/ADR-RES was 81.5 µM (inactive).
Turning to `CN(C)c1ccc2nc3c(C(=O)O)cc(O)c(O)c3[o+]c2c1`, the GI50 in the assay with ACHN is 31.5 µM (inactive); in the assay with SR, 17.5 µM (inactive); in the assay on OVCAR-3, 13.3 µM (inactive); with HCT-116 it was 24.9 µM (inactive); with NCI-H226, 56.5 µM (inactive); with U-251 it was 29.7 µM (inactive). Further, the GI50 in the assay with UACC-62 was 20 µM (inactive); in the assay on EKVX it was 26.4 µM (inactive); with HL-60, 22.3 µM (inactive); with COLO 205 it was 24.7 µM (inactive); with HOP-92, 67 µM (inactive); in the assay on MCF7, 21.1 µM (inactive). In addition, the GI50 in the assay with KM12 is 26.9 µM (inactive); in the assay with OVCAR-4, 29 µM (inactive); in the assay with RPMI-8226 it was 18.8 µM (inactive); in the assay with CCRF-CEM, 10.5 µM (inactive); in the assay with NCI-H522, 5.48 µM (inactive); in the assay with SNB-19 it was 28.7 µM (inactive). Also, the GI50 with NCI/ADR-RES is 28.7 µM (inactive).
